“Also recorded” adds a separate entry of the source. Where two headings read alike, the source gives them in different places. Positions of bridges follow the written chain, without caps; N, C: chain ends. No end group written: not given here.
Assays:
[1] = test system: adenylyl cyclase of ROS 17/2 cells; assay type: cell-based, rat
Source text: Adenylyl cyclase activities of 4- to 5-day cultures of ROS 17/2 cells in 24-well plates were estimated from the rate of formation of [^3 H]-cAMF from the cellular ATP pool, which had been labelled with [^3 H]-adenine before exposure to hPTH or its analogues in accordance with Jouishomme, H. Whitfield, J. F.; Gagnon, L.; Maclean, S.; Isaacs, R.; Chakravarthy, B.; Durkin, J.; Neugebauer, W.; Willick, G.; Rixon, R. H. Further Definition of the Protein Kinase C Activation Domain of the Parathyroid Hormone. J. Bone Miner. Res. 1994, 9, 943-949.

[2] = test system: ovariectomized rat model; details: ovariectomized rats, literature; cited from earlier work
[3] = test system: ovariectomized (OVX) rats; test: Growth of trabeculae in the distal femurs of ovariectomized (OVX) rats, injections week 9 to 15 after OVX; assay type: in vivo; details: 5 nmoles/100 g of body weight s.c. daily, FIG. 8, in words
Source text: Rats were OVXed (OVX) or sham-OVXed (sham) and given daily subcutaneous injections of vehicle between the end of the 9th week and the end of the 15th week after OVX. Injection quantities were 5 nmoles/100 g of body weight. OVXed rats received daily subcutaneous injections of: vehicle (OVX), hPTH(1-31)NH2, 5 nmol (linear), [Leu^27 ]cyclo(Glu^22 -Lys^26)hPTH(1-28)NH2, 5 nmol (cyclic), or [Glu^17,Leu^27]cyclo(Lys^13 -Glu^17,Glu^22 Lys^26)hPTH(1-31)NH2, 5nmol(double cyclic). The femurs were demineralized and stained with Sanderson's rapid bone stain. […] This improvement is not correlated with their relative AC-stimulating activities, but likely results from greater stability to proteolytic attack and greater ability to be transported from the site of injection.

[4] = biological target: PTH receptor
[5] = ROS 17/2 cells, concentration required to obtain half-maximal activity

## SVSEIQLMHNLGKHLNSMERVEWLRKKL-NH2 [hPTH(1-28)NH2, reference compound]
[1]
  AC-Stimulation (ED50%, nM): 24 nM

## SVSEIQLMHNLGKHLNSMERVEWLRKKLQ-NH2 [hPTH(1-29)NH2, reference compound]
[1]
  AC-Stimulation (ED50%, nM): 24 nM

## Ser Val Ser Glu Ile Gln Leu Met His Asn Leu Gly Lys His Leu Asn Ser Met Glu Arg Val Glu Trp Leu Arg Lys Lys Leu Gin Asp Val-NH2 (SVSEIQLMHNLGKHLNSMERVEWLRKKLQDV-NH2) [hPTH-(1-31)-NH2, linear human parathyroid hormone fragment 1-31 amide]
[2]
  anabolic activity / restoration of bone loss: fully active in the restoration of bone loss

## [Glu^17, Leu^27 ]cyclo(Lys^13 -Glu^17, Glu^22 -Lys^26)-hPTH-(1-31)-NH2 (SVSEIQLMHNLGKHLNEMERVEWLRKLLQDV-NH2; lactam 13-17, 22-26; N-terminus assumed; SMILES CC[C@H](C)[C@H](NC(=O)[C@H](CCC(=O)O)NC(=O)[C@H](CO)NC(=O)[C@@H](NC(=O)[C@@H](N)CO)C(C)C)C(=O)N[C@@H](CCC(N)=O)C(=O)N[C@@H](CC(C)C)C(=O)N[C@@H](CCSC)C(=O)N[C@@H](Cc1c[nH]cn1)C(=O)N[C@@H](CC(N)=O)C(=O)N[C@@H](CC(C)C)C(=O)NCC(=O)N[C@H]1CCCCNC(=O)CC[C@@H](C(=O)N[C@@H](CCSC)C(=O)N[C@@H](CCC(=O)O)C(=O)N[C@@H](CCCNC(=N)N)C(=O)N[C@H](C(=O)N[C@H]2CCC(=O)NCCCC[C@@H](C(=O)N[C@@H](CC(C)C)C(=O)N[C@@H](CC(C)C)C(=O)N[C@@H](CCC(N)=O)C(=O)N[C@@H](CC(=O)O)C(=O)N[C@H](C(N)=O)C(C)C)NC(=O)[C@H](CCCNC(=N)N)NC(=O)[C@H](CC(C)C)NC(=O)[C@H](Cc3c[nH]c4ccccc34)NC2=O)C(C)C)NC(=O)[C@H](CC(N)=O)NC(=O)[C@H](CC(C)C)NC(=O)[C@H](Cc2c[nH]cn2)NC1=O) [double cyclic (13-17 and 22-26 lactams) hPTH 1-31 amide analogue]
[1]; [5]
  AC-Stimulation (ED50%, nM): 13.2 nM
[3]
  increasing the thickness of the remaining trabeculae: better than its monocyclic counterpart; also recorded: significantly better than the linear molecule

## [Leu^27 ]cyclo(Glu^22 -Lys^26)-hPTH-(1-28)-NH2 (SVSEIQLMHNLGKHLNSMERVEWLRKLL-NH2; lactam 22-26; N-terminus assumed; SMILES CC[C@H](C)[C@H](NC(=O)[C@H](CCC(=O)O)NC(=O)[C@H](CO)NC(=O)[C@@H](NC(=O)[C@@H](N)CO)C(C)C)C(=O)N[C@@H](CCC(N)=O)C(=O)N[C@@H](CC(C)C)C(=O)N[C@@H](CCSC)C(=O)N[C@@H](Cc1c[nH]cn1)C(=O)N[C@@H](CC(N)=O)C(=O)N[C@@H](CC(C)C)C(=O)NCC(=O)N[C@@H](CCCCN)C(=O)N[C@@H](Cc1c[nH]cn1)C(=O)N[C@@H](CC(C)C)C(=O)N[C@@H](CC(N)=O)C(=O)N[C@@H](CO)C(=O)N[C@@H](CCSC)C(=O)N[C@@H](CCC(=O)O)C(=O)N[C@@H](CCCNC(=N)N)C(=O)N[C@H](C(=O)N[C@H]1CCC(=O)NCCCC[C@@H](C(=O)N[C@@H](CC(C)C)C(=O)N[C@@H](CC(C)C)C(N)=O)NC(=O)[C@H](CCCNC(=N)N)NC(=O)[C@H](CC(C)C)NC(=O)[C@H](Cc2c[nH]c3ccccc23)NC1=O)C(C)C) [[Leu^27]c(Glu^22 -Lys^26)hPTH(1-28)NH2, 22-26 lactam cyclic analogue of human parathyroid hormone 1-28 amide with Leu27]
[1]; [5]
  AC-Stimulation (ED50%, nM): 9.6 nM

## [Leu^27 ]cyclo(Glu^22 -Lys^26)-hPTH-(1-29)-NH2 (SVSEIQLMHNLGKHLNSMERVEWLRKLLQ-NH2; lactam 22-26; N-terminus assumed; SMILES CC[C@H](C)[C@H](NC(=O)[C@H](CCC(=O)O)NC(=O)[C@H](CO)NC(=O)[C@@H](NC(=O)[C@@H](N)CO)C(C)C)C(=O)N[C@@H](CCC(N)=O)C(=O)N[C@@H](CC(C)C)C(=O)N[C@@H](CCSC)C(=O)N[C@@H](Cc1c[nH]cn1)C(=O)N[C@@H](CC(N)=O)C(=O)N[C@@H](CC(C)C)C(=O)NCC(=O)N[C@@H](CCCCN)C(=O)N[C@@H](Cc1c[nH]cn1)C(=O)N[C@@H](CC(C)C)C(=O)N[C@@H](CC(N)=O)C(=O)N[C@@H](CO)C(=O)N[C@@H](CCSC)C(=O)N[C@@H](CCC(=O)O)C(=O)N[C@@H](CCCNC(=N)N)C(=O)N[C@H](C(=O)N[C@H]1CCC(=O)NCCCC[C@@H](C(=O)N[C@@H](CC(C)C)C(=O)N[C@@H](CC(C)C)C(=O)N[C@@H](CCC(N)=O)C(N)=O)NC(=O)[C@H](CCCNC(=N)N)NC(=O)[C@H](CC(C)C)NC(=O)[C@H](Cc2c[nH]c3ccccc23)NC1=O)C(C)C) [[Leu^27]c(Glu^22 -Lys^26)hPTH(1-29)NH2, 22-26 lactam cyclic analogue of human parathyroid hormone 1-29 amide with Leu27]
[1]; [5]
  AC-Stimulation (ED50%, nM): 8.4 nM

## hPTH(1-30)NH2 (SVSEIQLMHNLGKHLNSMERVEWLRKKLQD-NH2; UniProt P01270 32-61, looked up, fragment) [linear human parathyroid hormone fragment 1-30 amide]
[2]
  anabolic activity / restoration of bone loss: only with much higher doses than used with the (1-31) analogue

## SVSEIQLMHNLGKHLNSMERVEWLRKKLQ-NH2 [hPTH(1-29)NH2]
[4]
  AC-Stimulation (ED50%, nM): 24 nM

B1: [Leu^27]cyclo(Glu^22-Lys^26)-hPTH-(1-29)-NH2 (peptide)
peptide: SVSEIQLMHNLGKHLNSMERVEWLRKLLQ-NH2
modifications: lactam 22-26; N-terminus assumed
SMILES: CC[C@H](C)[C@H](NC(=O)[C@H](CCC(=O)O)NC(=O)[C@H](CO)NC(=O)[C@@H](NC(=O)[C@@H](N)CO)C(C)C)C(=O)N[C@@H](CCC(N)=O)C(=O)N[C@@H](CC(C)C)C(=O)N[C@@H](CCSC)C(=O)N[C@@H](Cc1c[nH]cn1)C(=O)N[C@@H](CC(N)=O)C(=O)N[C@@H](CC(C)C)C(=O)NCC(=O)N[C@@H](CCCCN)C(=O)N[C@@H](Cc1c[nH]cn1)C(=O)N[C@@H](CC(C)C)C(=O)N[C@@H](CC(N)=O)C(=O)N[C@@H](CO)C(=O)N[C@@H](CCSC)C(=O)N[C@@H](CCC(=O)O)C(=O)N[C@@H](CCCNC(=N)N)C(=O)N[C@H](C(=O)N[C@H]1CCC(=O)NCCCC[C@@H](C(=O)N[C@@H](CC(C)C)C(=O)N[C@@H](CC(C)C)C(=O)N[C@@H](CCC(N)=O)C(N)=O)NC(=O)[C@H](CCCNC(=N)N)NC(=O)[C@H](CC(C)C)NC(=O)[C@H](Cc2c[nH]c3ccccc23)NC1=O)C(C)C
[4]
  AC-Stimulation (ED50%, nM): 8.4 nM

B2: [Leu^27]cyclo(Glu^22-Lys^26)-hPTH-(1-28)-NH2 (peptide)
peptide: SVSEIQLMHNLGKHLNSMERVEWLRKLL-NH2
modifications: lactam 22-26; N-terminus assumed
SMILES: CC[C@H](C)[C@H](NC(=O)[C@H](CCC(=O)O)NC(=O)[C@H](CO)NC(=O)[C@@H](NC(=O)[C@@H](N)CO)C(C)C)C(=O)N[C@@H](CCC(N)=O)C(=O)N[C@@H](CC(C)C)C(=O)N[C@@H](CCSC)C(=O)N[C@@H](Cc1c[nH]cn1)C(=O)N[C@@H](CC(N)=O)C(=O)N[C@@H](CC(C)C)C(=O)NCC(=O)N[C@@H](CCCCN)C(=O)N[C@@H](Cc1c[nH]cn1)C(=O)N[C@@H](CC(C)C)C(=O)N[C@@H](CC(N)=O)C(=O)N[C@@H](CO)C(=O)N[C@@H](CCSC)C(=O)N[C@@H](CCC(=O)O)C(=O)N[C@@H](CCCNC(=N)N)C(=O)N[C@H](C(=O)N[C@H]1CCC(=O)NCCCC[C@@H](C(=O)N[C@@H](CC(C)C)C(=O)N[C@@H](CC(C)C)C(N)=O)NC(=O)[C@H](CCCNC(=N)N)NC(=O)[C@H](CC(C)C)NC(=O)[C@H](Cc2c[nH]c3ccccc23)NC1=O)C(C)C
[4]
  AC-Stimulation (ED50%, nM): 9.6 nM

## SVSEIQLMHNLGKHLNSMERVEWLRKKL-NH2 [hPTH(1-28)NH2]
[4]
  AC-Stimulation (ED50%, nM): 24 nM

B3: [Glu^17, Leu^27]cyclo(Lys^13-Glu^17, Glu^22-Lys^26)-hPTH-(1-31)-NH2 (peptide)
peptide: SVSEIQLMHNLGKHLNEMERVEWLRKLLQDV-NH2
modifications: lactam 13-17, 22-26; N-terminus assumed
SMILES: CC[C@H](C)[C@H](NC(=O)[C@H](CCC(=O)O)NC(=O)[C@H](CO)NC(=O)[C@@H](NC(=O)[C@@H](N)CO)C(C)C)C(=O)N[C@@H](CCC(N)=O)C(=O)N[C@@H](CC(C)C)C(=O)N[C@@H](CCSC)C(=O)N[C@@H](Cc1c[nH]cn1)C(=O)N[C@@H](CC(N)=O)C(=O)N[C@@H](CC(C)C)C(=O)NCC(=O)N[C@H]1CCCCNC(=O)CC[C@@H](C(=O)N[C@@H](CCSC)C(=O)N[C@@H](CCC(=O)O)C(=O)N[C@@H](CCCNC(=N)N)C(=O)N[C@H](C(=O)N[C@H]2CCC(=O)NCCCC[C@@H](C(=O)N[C@@H](CC(C)C)C(=O)N[C@@H](CC(C)C)C(=O)N[C@@H](CCC(N)=O)C(=O)N[C@@H](CC(=O)O)C(=O)N[C@H](C(N)=O)C(C)C)NC(=O)[C@H](CCCNC(=N)N)NC(=O)[C@H](CC(C)C)NC(=O)[C@H](Cc3c[nH]c4ccccc34)NC2=O)C(C)C)NC(=O)[C@H](CC(N)=O)NC(=O)[C@H](CC(C)C)NC(=O)[C@H](Cc2c[nH]cn2)NC1=O
[4]
  AC-Stimulation (ED50%, nM): 13.2 nM
